# Experimental data: patent publication US20170231929A1, “METHOD FOR ENHANCING IMMUNE CELL FUNCTION AND METHOD FOR ASSESSING IMMUNE CELL MULTIFUNCTIONALITY” (NATIONAL UNIVERSITY CORPORATION OKAYAMA UNIVERSITY, priority 2014, published 2017)
# Test system: CD8^+T cells
# Experiment: Multifunctionality of CD8^+T cells of metastatic lung cancer patients (stage IV) after metformin treatment of PBMC (flow cytometer)
# Assay type: cell-based, human
# Conditions: for Decrease, IFNγ 1-cytokine-producing cell / Decrease, IFNγ/IL-2 2-cytokine-producing cell / Decrease, IFNγ/TNFα 2-cytokine-producing cell / Decrease, IFNγ/TNFα/IL2 3-cytokine-producing cell / Increase, IFNγ 1-cytokine-producing cell / Increase, IFNγ/IL-2 2-cytokine-producing cell / Increase, IFNγ/TNFα 2-cytokine-producing cell / Increase, IFNγ/TNFα/IL2 3-cytokine-producing cell / No Change, IFNγ 1-cytokine-producing cell / No Change, IFNγ/IL-2 2-cytokine-producing cell / No Change, IFNγ/TNFα 2-cytokine-producing cell / No Change, IFNγ/TNFα/IL2 3-cytokine-producing cell: Cancer Patients (stage IV)
# Description: 1. Peripheral blood was obtained from a test subject, and PBMC was separated by a density-gradient centrifugation using a lymphocyte-separating reagent Ficoll-Paque® (GE Healthcare). 3 mL of Ficoll-Paque® was dispensed in a 15-mL tube. 8 mL of the peripheral blood was gently placed on the reagent. At this time, care should be taken not to mix Ficoll-Paque® with the peripheral blood. Centrifugation was performed at 400 g for 30 minutes, thereby separating PBMC. 2. The separated PBMC was preserved in a −150° C. freezer or liquid nitrogen using Bambang Car cell preservation liquid by adjusting the cell number to 2.0×10^6 cell/tube. 3. In the test, the thawed PBMC was cultured for 1 to 10 hours in the presence or absence of […]. The culture was performed using a 24-well plate, and the cell number was adjusted to about 5.0×10^5 cell/well. 4. The cells were collected after 1 to 10 hours, washed with medium, and cultured in the presence of a cell activation reagent (potent nanomolar activator of protein kinase C (PMA, 50 ng/mL), ionomycin (1 μM)) for 6 hours, thereby non-specifically stimulating T cells. At this time, BD Gorgi Stop™ was added to keep the produced cytokines inside the cells. 5. The cells were isolated and washed twice with a cell-staining buffer. First, staining of CD8, PD-1, Tim-3, which are molecules expressed on the T cell surface, was performed. In the staining, a staining buffer was added in an amount of 50 μL per sample. The culture was performed at 4° C. for 30 minutes. 6. The cells were collected and washed twice with a cell-staining buffer. 500 μL of BD Cytofix/Cytoperm was added and cultured at 4° C. for 30 minutes. 7. The cells were collected and washed twice with BD Perm/Wash™. Staining of cytokines IL-2, TNFα, and IFNγ was performed. In the staining, BD Perm/Wash™ was added in an amount of 50 μL per sample. The culture was performed at 4° C. for 30 minutes. 8. The cells were collected and washed twice with BD Perm/Wash™, and 200 μL of BD Perm/Wash™ was added. 9. Analysis was performed using a FACSCanto™ II flow cytometer (Becton, Dickinson and Company).
# Among the PBMC treated with PMA/ionomycin in the method shown in (2) above, first, a gate was applied to CD8^+T cells using a FACSCanto™ II flow cytometer (Becton, Dickinson and Company), and then […] were removed by FSC-A and FSC-H. Using parameters FSC-A and SSC-A, a gate was applied to a lymphocyte group, thereby analyzing expression of PD-1 and Tim-3. Further, intracellular cytokines IFNγ, TNFα, and IL-2 were stained, and multifunctionality of CD8^+T cells contained in the PBMC was analyzed (FIG. 1).
# This Example analyzed test results regarding recovery of multifunctionality of CD8^+T cells by metformin in 10 healthy subjects and five metastatic lung cancer patients (stage IV) by the same method as in Example 1. As in Table 3, in Table 3, in addition to the total CD8^+T cells (total CD8T), cytokine production abilities were confirmed in four kinds of CD8^+T cells, i.e., PD-1-positive, Tim-3-negative CD8^+T cells, PD-1-positive, Tim-3-positive CD8^+T cells, PD-1-negative, Tim-3-positive CD8^+T cells, and PD-1-negative, Tim-3-negative CD8^+T cells (Table 4). Cytokine production ability refers to cytokine production ratios of three kinds of cytokines (A), IFNγ/TNFα/IL-2, two kinds of cytokines (B), IFNγ/TNFα, two kinds of cytokines (C), FNγ/IL-2, and one kind of cytokine (D), IFNγ.
compound,measurement,setting,value
CN(C)C(=N)N=C(N)N [metformin],"Decrease, IFNγ 1-cytokine-producing cell","PD-1+, Tim-3+, patients/total",1/5
same,"Decrease, IFNγ/IL-2 2-cytokine-producing cell","PD-1+, Tim-3+, patients/total",1/5
same,"Decrease, IFNγ/TNFα 2-cytokine-producing cell","PD-1+, Tim-3+, patients/total",1/5
same,"Decrease, IFNγ/TNFα/IL2 3-cytokine-producing cell","PD-1+, Tim-3+, patients/total",0/5
same,"Increase, IFNγ 1-cytokine-producing cell","PD-1+, Tim-3+, patients/total",1/5
same,"Increase, IFNγ/IL-2 2-cytokine-producing cell","PD-1+, Tim-3+, patients/total",1/5
same,"Increase, IFNγ/TNFα 2-cytokine-producing cell","PD-1+, Tim-3+, patients/total",1/5
same,"Increase, IFNγ/TNFα/IL2 3-cytokine-producing cell","PD-1+, Tim-3+, patients/total",0/5
same,"No Change, IFNγ 1-cytokine-producing cell","PD-1+, Tim-3+, patients/total",3/5
same,"No Change, IFNγ/IL-2 2-cytokine-producing cell","PD-1+, Tim-3+, patients/total",3/5
same,"No Change, IFNγ/TNFα 2-cytokine-producing cell","PD-1+, Tim-3+, patients/total",3/5
same,"No Change, IFNγ/TNFα/IL2 3-cytokine-producing cell","PD-1+, Tim-3+, patients/total",5/5
same,"Decrease, IFNγ 1-cytokine-producing cell","PD-1+, Tim-3−, patients/total",1/5
same,"Decrease, IFNγ/IL-2 2-cytokine-producing cell","PD-1+, Tim-3−, patients/total",1/5
same,"Decrease, IFNγ/TNFα 2-cytokine-producing cell","PD-1+, Tim-3−, patients/total",2/5
same,"Decrease, IFNγ/TNFα/IL2 3-cytokine-producing cell","PD-1+, Tim-3−, patients/total",0/5
same,"Increase, IFNγ 1-cytokine-producing cell","PD-1+, Tim-3−, patients/total",0/5
same,"Increase, IFNγ/IL-2 2-cytokine-producing cell","PD-1+, Tim-3−, patients/total",4/5
same,"Increase, IFNγ/TNFα 2-cytokine-producing cell","PD-1+, Tim-3−, patients/total",1/5
same,"Increase, IFNγ/TNFα/IL2 3-cytokine-producing cell","PD-1+, Tim-3−, patients/total",4/5
same,"No Change, IFNγ 1-cytokine-producing cell","PD-1+, Tim-3−, patients/total",4/5
same,"No Change, IFNγ/IL-2 2-cytokine-producing cell","PD-1+, Tim-3−, patients/total",0/5
same,"No Change, IFNγ/TNFα 2-cytokine-producing cell","PD-1+, Tim-3−, patients/total",2/5
same,"No Change, IFNγ/TNFα/IL2 3-cytokine-producing cell","PD-1+, Tim-3−, patients/total",1/5
same,"Decrease, IFNγ 1-cytokine-producing cell","PD-1−, Tim-3+, patients/total",2/5
same,"Decrease, IFNγ/IL-2 2-cytokine-producing cell","PD-1−, Tim-3+, patients/total",3/5
same,"Decrease, IFNγ/TNFα 2-cytokine-producing cell","PD-1−, Tim-3+, patients/total",2/5
same,"Decrease, IFNγ/TNFα/IL2 3-cytokine-producing cell","PD-1−, Tim-3+, patients/total",0/5
same,"Increase, IFNγ 1-cytokine-producing cell","PD-1−, Tim-3+, patients/total",3/5
same,"Increase, IFNγ/IL-2 2-cytokine-producing cell","PD-1−, Tim-3+, patients/total",0/5
same,"Increase, IFNγ/TNFα 2-cytokine-producing cell","PD-1−, Tim-3+, patients/total",1/5
same,"Increase, IFNγ/TNFα/IL2 3-cytokine-producing cell","PD-1−, Tim-3+, patients/total",0/5
same,"No Change, IFNγ 1-cytokine-producing cell","PD-1−, Tim-3+, patients/total",0/5
same,"No Change, IFNγ/IL-2 2-cytokine-producing cell","PD-1−, Tim-3+, patients/total",2/5
same,"No Change, IFNγ/TNFα 2-cytokine-producing cell","PD-1−, Tim-3+, patients/total",2/5
same,"No Change, IFNγ/TNFα/IL2 3-cytokine-producing cell","PD-1−, Tim-3+, patients/total",5/5
same,"Decrease, IFNγ 1-cytokine-producing cell","PD-1−, Tim-3−, patients/total",2/5
same,"Decrease, IFNγ/IL-2 2-cytokine-producing cell","PD-1−, Tim-3−, patients/total",2/5
same,"Decrease, IFNγ/TNFα 2-cytokine-producing cell","PD-1−, Tim-3−, patients/total",2/5
same,"Decrease, IFNγ/TNFα/IL2 3-cytokine-producing cell","PD-1−, Tim-3−, patients/total",0/5
same,"Increase, IFNγ 1-cytokine-producing cell","PD-1−, Tim-3−, patients/total",1/5
same,"Increase, IFNγ/IL-2 2-cytokine-producing cell","PD-1−, Tim-3−, patients/total",1/5
same,"Increase, IFNγ/TNFα 2-cytokine-producing cell","PD-1−, Tim-3−, patients/total",1/5
same,"Increase, IFNγ/TNFα/IL2 3-cytokine-producing cell","PD-1−, Tim-3−, patients/total",2/5
same,"No Change, IFNγ 1-cytokine-producing cell","PD-1−, Tim-3−, patients/total",2/5
same,"No Change, IFNγ/IL-2 2-cytokine-producing cell","PD-1−, Tim-3−, patients/total",2/5
same,"No Change, IFNγ/TNFα/IL2 3-cytokine-producing cell","PD-1−, Tim-3−, patients/total",3/5
same,"Decrease, IFNγ 1-cytokine-producing cell","Total CD8T, patients/total",3/5
same,"Decrease, IFNγ/IL-2 2-cytokine-producing cell","Total CD8T, patients/total",0/5
same,"Decrease, IFNγ/TNFα 2-cytokine-producing cell","Total CD8T, patients/total",4/5
same,"Decrease, IFNγ/TNFα/IL2 3-cytokine-producing cell","Total CD8T, patients/total",0/5
same,"Increase, IFNγ 1-cytokine-producing cell","Total CD8T, patients/total",0/5
same,"Increase, IFNγ/IL-2 2-cytokine-producing cell","Total CD8T, patients/total",1/5
same,"Increase, IFNγ/TNFα 2-cytokine-producing cell","Total CD8T, patients/total",1/5
same,"Increase, IFNγ/TNFα/IL2 3-cytokine-producing cell","Total CD8T, patients/total",1/5
same,"No Change, IFNγ 1-cytokine-producing cell","Total CD8T, patients/total",2/5
same,"No Change, IFNγ/IL-2 2-cytokine-producing cell","Total CD8T, patients/total",4/5
same,"No Change, IFNγ/TNFα 2-cytokine-producing cell","Total CD8T, patients/total",0/5
same,"No Change, IFNγ/TNFα/IL2 3-cytokine-producing cell","Total CD8T, patients/total",4/5
same,"Increase + No Change, IFNγ/TNFα/IL2, share of patients","Total CD8T, Patients (stage IV)",100%
same,"Increase + No Change, IFNγ/TNFα/IL2","Total CD8T, Patients (stage IV), patients/total",5/5
same,decrease in multifunctionality by the metformin treatment (three kinds of cytokines),cancer patients (stage IV),very small (zero)
